Among the data in the NIST ThermoML archive (doi:10.1021/je100991y) are refractive index values, retold here.

Numbers after ± are expanded uncertainties.

Data set [1] can be described thus: refractive index (Na D-line) (dimensionless). The conditions noted are these: 101.33 kPa, Liquid, Standard Abbe refractometry.
Data set [2] can be described thus: refractive index (Na D-line) (dimensionless); wn = mass fraction of the nth substance listed. To be noted: 95 kPa, Liquid, Standard Abbe refractometry.

For `CCOS(=O)(=O)[O-].CCn1cc[n+](C)c1` [1-ethyl-3-methylimidazolium ethyl sulfate], the refractive index (commonly the speed of light in vacuum divided by its phase velocity in the sample) in data set [1] (298.2 K) is 1.4789 ± 0.0011; in data set [1] (313.2 K) it was 1.4745 ± 0.0011.
For the molecule `CCCCCCCCCCCC` [dodecane] + Cc1cccc2c1sc1c(C)cccc12, the refractive index turned out to be 1.4196 ± 0.0006 in data set [2] (298.2 K, w2 = 0) and 1.4131 ± 0.0006 in data set [2] (313.2 K, w2 = 0).
As for `CCOP(=O)([O-])OCC.CCn1cc[n+](C)c1` [1-ethyl-3-methylimidazolium diethyl phosphate], the refractive index is listed as 1.4733 ± 0.0006 in data set [1] (298.2 K) and 1.4691 ± 0.0006 in data set [1] (313.2 K).
Regarding `CCCCCCCCCCCC` [dodecane], the refractive index in data set [1] (298.2 K) is on record as 1.4196 ± 0.0006; in data set [1] (313.2 K), 1.4131 ± 0.0006.
In the case of `Cc1cccc2c1sc1c(C)cccc12` [4,6-dimethyldibenzo[b,d]thiophene] + CCCCCCCCCCCC, the refractive index is 1.4201 ± 0.0006 in data set [2] (298.2 K, w1 = 0.0037); 1.4206 ± 0.0006 in data set [2] (298.2 K, w1 = 0.0062); 1.421 ± 0.0006 in data set [2] (298.2 K, w1 = 0.0089); 1.4137 ± 0.0006 in data set [2] (313.2 K, w1 = 0.0037); 1.4141 ± 0.0006 in data set [2] (313.2 K, w1 = 0.0062); 1.4146 ± 0.0006 in data set [2] (313.2 K, w1 = 0.0089).
